# Experimental data: ChEMBL document CHEMBL1201862, “PubChem BioAssay data set” (2004)
# Structures can show the parent of a compound that is named as a salt. Activity calls are given as the source filed them.
# Legend:
# [1] = ATP-based viability loss in HeLa cells – cell-based, CellTiter-Glo luminescence, dry powder, set 2, cytotoxicity control, dose response (AID 720593); format: functional
# [2] = THP-1 cell cytotoxicity, dose response, cytotoxicity control for non-replicating M. tuberculosis project (AID 489025); format: functional
# [3] = test system: Streptococcus sp. 'group A'; test: Streptococcus pyogenes SK(-)GAS viability under kanamycin – luminescence, BacTiterGlo, confirmation, counter-screen for streptokinase expression inhibitor project, dose response (AID 1900); format: functional, organism-based
# Nonstructural protein 1 = Nonstructural protein 1 (Influenza A virus, UniProt Q194T2); format: functional, Influenza A virus (A/California/07/2009(H1N1))
# Streptococcus = test: GAS UMAA2166 growth inhibition – luminescence, BacTiterGlo, counter-screen for streptokinase expression inhibitor project, dose response (AID 1915); format: functional, organism-based;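 note: potency for reduction of bacterial viability or growth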
# Streptokinase A = biological target: T1, Streptokinase A (Streptococcus pyogenes serotype M1, UniProt P10520); test: viability-normalized secreted streptokinase activity reduction – plasminogen activation absorbance, OD405, dose response (AID 1914); format: functional, Streptococcus pyogenes M1 GAS;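 note: secreted streptokinase activity via plasminogen activation per viability signal from cell pellet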
# T1 sequence (P10520 whole entry): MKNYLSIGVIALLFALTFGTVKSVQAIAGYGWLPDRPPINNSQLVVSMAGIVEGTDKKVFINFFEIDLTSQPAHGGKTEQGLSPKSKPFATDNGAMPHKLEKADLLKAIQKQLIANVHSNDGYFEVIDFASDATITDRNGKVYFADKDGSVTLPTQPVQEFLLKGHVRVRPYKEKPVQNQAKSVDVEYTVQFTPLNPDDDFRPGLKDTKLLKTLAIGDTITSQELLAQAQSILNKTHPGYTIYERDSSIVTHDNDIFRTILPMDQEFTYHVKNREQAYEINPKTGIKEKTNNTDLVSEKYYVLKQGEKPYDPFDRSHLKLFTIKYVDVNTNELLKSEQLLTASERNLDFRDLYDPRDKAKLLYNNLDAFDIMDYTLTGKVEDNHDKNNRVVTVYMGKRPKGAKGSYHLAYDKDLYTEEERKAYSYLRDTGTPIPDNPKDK
# cells = format: functional
# [4] = HepG2 cell cytotoxicity, dose response, cytotoxicity control for non-replicating M. tuberculosis project (AID 489018); format: functional; settings: Mycobacterium tuberculosis
# [5] = ATP-based viability loss in HEK293T cells – cell-based, CellTiter-Glo luminescence, dry powder, set 2, cytotoxicity control, dose response (AID 720595); format: functional; settings: HEK293
# [6] = Vero E6 cell cytotoxicity, dose response, cytotoxicity control for non-replicating M. tuberculosis project, secondary assay (AID 492998); format: functional, VeroE6; settings: Vero C1008
# [7] = biological target: NAD-dependent protein deacylase sirtuin-5, mitochondrial (Homo sapiens, UniProt Q9NXA8); test: blockers of sirtuin-5 peptide desuccinylation – biochemical, fluorescence imaging, cherry-pick, set 6, dose response (AID 720597)
# [8] = A Cell-Based Confirmatory Screen for Compounds that Inhibit VEEV, TC-83 (5).; format: functional
# [9] = A Cell-Based Confirmatory Screen for Compounds that Inhibit VEEV, TC-83 (8).; format: functional
# [10] = A Cell-Based Confirmatory Screen for Compounds that Inhibit VEEV TC-83 (4).; format: functional
# Vasopressin V1b receptor = Vasopressin V1b receptor (Homo sapiens, UniProt P47901); test: Late-stage results from the probe development effort to identify antagonists of arginine vasopressin receptor 1a (AVPR1a): fluorescence-based cell-based dose response AVPR1b inhibition counterscreen assay.; format: functional
# [11] = Late-stage results from the probe development effort to identify antagonists of arginine vasopressin receptor 1a (AVPR1a): fluorescence-based cell-based dose response AVPR1a inhibition assay.; format: functional
# [12] = Late-stage results from the probe development effort to identify antagonists of arginine vasopressin receptor 1a (AVPR1a): fluorescence-based cell-based dose response OXTR inhibition counterscreen assay.; format: functional
# Vasopressin V2 receptor = Vasopressin V2 receptor (Homo sapiens, UniProt P30518); test: Late-stage results from the probe development effort to identify antagonists of arginine vasopressin receptor 1a (AVPR1a): fluorescence-based cell-based dose response AVPR2 inhibition counterscreen assay.; format: functional
# [13] = inhibitors of non-replicating M. tuberculosis, dose response, luciferase, dry powder (AID 651619); format: functional; settings: Mycobacterium tuberculosis
# [14] = HepG2 hepatoma cell viability loss – plate reader, dry powder, cytotoxicity control, dose response (AID 651947); format: functional, cell-based
# [15] = growth inhibition of replicating M. tuberculosis, dose response, counter-screen, dry powder, IC90 (AID 651617); format: functional; settings: Mycobacterium tuberculosis
# [16] = inhibitors of non-replicating M. tuberculosis, dose response, luciferase, dry powder (AID 651620); format: functional; settings: Mycobacterium tuberculosis
# [17] = biological target: Induced myeloid leukemia cell differentiation protein Mcl-1 (Homo sapiens, UniProt Q07820); test: blockers of MCL1 binding to BIM peptide – biochemical, fluorescence polarization, BIM-BH3 peptide, 1536-well, dose response (AID 2217)
# Bcl-2-like protein 1 = Bcl-2-like protein 1 (Homo sapiens, UniProt Q07817); test: blockers of BCLXL peptide binding – biochemical, fluorescence polarization, 1536-well, selectivity assay for MCL1 inhibitor project, dose response (AID 2218)
# [18] = P. falciparum Dd2 growth inhibitors, dose response, SYBR Green, cherry-picked samples (AID 1159567); format: functional, cell-based
# [19] = toxicity to human hepatoma HepG2 cells – cell-based, cherry-picked samples, cytotoxicity control, dose response (AID 1159577); format: functional
# [20] = Dd2 parasite growth inhibition in erythrocytes – SYBR Green, dry powder samples, set 9, dose response (AID 1159568); format: functional, cell-based
# [21] = Dd2 parasite growth inhibition in erythrocytes – SYBR Green, dry powder samples, set 4, dose response (AID 1159572); format: functional, cell-based
# [22] = antimalarial activity against Dd2 parasites – SYBR Green fluorescence, erythrocytes, dry powder, set 2, dose response (AID 1159574); format: functional, cell-based
# HeLa = test: viability loss in HeLa cells – cell-based, ATP luminescence, cherry-pick samples, cytotoxicity control, dose response (AID 687004); format: functional; settings: Homo sapiens
# [23] = IC50 of insulin release inhibition, rat insulinoma INS-1E line, 5 mM glucose, cell-based (AID 1117331); format: functional
# Chain of Nonstructural protein 1 (Q194T2 whole entry): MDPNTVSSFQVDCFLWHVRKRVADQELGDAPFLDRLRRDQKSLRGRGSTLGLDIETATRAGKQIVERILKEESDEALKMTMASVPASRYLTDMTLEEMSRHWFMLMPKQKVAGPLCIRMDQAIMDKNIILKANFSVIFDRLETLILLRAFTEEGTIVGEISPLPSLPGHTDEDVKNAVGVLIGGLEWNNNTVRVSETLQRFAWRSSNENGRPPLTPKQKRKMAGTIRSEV
# Chain of Induced myeloid leukemia cell differentiation protein Mcl-1 (Q07820 whole entry): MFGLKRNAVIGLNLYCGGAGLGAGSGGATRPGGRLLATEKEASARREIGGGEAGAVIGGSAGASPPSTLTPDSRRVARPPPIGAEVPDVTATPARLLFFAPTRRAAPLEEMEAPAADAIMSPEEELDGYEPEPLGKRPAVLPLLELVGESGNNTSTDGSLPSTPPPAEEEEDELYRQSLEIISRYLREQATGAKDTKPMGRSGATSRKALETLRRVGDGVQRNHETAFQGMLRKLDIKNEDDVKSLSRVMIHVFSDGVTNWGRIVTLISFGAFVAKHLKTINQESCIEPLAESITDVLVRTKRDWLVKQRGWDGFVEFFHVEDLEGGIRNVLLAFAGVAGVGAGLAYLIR
# Chain of Vasopressin V1b receptor (P47901 whole entry): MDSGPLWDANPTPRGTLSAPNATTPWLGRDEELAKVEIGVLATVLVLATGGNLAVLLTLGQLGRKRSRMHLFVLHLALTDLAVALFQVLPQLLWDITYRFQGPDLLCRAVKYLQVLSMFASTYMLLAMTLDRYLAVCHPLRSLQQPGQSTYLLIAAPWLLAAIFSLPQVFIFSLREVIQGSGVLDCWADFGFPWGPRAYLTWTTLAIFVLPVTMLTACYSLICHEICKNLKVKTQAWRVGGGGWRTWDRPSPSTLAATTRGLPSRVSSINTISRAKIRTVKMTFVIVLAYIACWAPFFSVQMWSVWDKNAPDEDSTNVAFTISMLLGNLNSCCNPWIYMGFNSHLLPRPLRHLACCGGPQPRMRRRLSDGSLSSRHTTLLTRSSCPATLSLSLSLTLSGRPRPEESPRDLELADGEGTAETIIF
# Chain of Vasopressin V2 receptor (P30518 whole entry): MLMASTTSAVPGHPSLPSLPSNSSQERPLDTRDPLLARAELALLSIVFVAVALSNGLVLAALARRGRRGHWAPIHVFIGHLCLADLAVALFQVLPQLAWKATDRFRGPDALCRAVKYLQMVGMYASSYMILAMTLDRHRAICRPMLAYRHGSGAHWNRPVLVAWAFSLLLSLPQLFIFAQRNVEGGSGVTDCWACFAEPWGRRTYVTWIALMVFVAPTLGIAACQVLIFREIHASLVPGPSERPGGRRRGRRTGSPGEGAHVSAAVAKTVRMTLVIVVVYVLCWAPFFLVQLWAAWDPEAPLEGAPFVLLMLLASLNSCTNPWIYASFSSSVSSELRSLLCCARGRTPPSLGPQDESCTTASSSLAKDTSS
# Chain of NAD-dependent protein deacylase sirtuin-5, mitochondrial (Q9NXA8 whole entry): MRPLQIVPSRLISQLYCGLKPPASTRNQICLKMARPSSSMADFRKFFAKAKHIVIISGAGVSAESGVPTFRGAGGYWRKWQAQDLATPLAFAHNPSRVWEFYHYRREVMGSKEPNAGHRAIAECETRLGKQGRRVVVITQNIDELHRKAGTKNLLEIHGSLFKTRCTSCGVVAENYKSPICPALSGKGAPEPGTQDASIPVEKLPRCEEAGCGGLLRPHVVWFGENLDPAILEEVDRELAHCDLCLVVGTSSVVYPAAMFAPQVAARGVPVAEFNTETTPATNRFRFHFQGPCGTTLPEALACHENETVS
# Chain of Bcl-2-like protein 1 (Q07817 whole entry): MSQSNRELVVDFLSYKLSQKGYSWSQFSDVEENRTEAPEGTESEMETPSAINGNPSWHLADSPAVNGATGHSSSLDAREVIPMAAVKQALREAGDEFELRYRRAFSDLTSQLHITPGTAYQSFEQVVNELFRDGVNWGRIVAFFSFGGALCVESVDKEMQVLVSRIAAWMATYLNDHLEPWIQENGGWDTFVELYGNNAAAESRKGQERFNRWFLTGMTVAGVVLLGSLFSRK
structure (smiles),measurement,setting,value
O=C(Nc1nc(-c2ccccn2)cs1)c1ccco1,AC50,[1],> 52 µM (inactive)
same,CC50,[2],6.1 µM (active)
same,EC50,[3],10.8 µM (active)
same,IC50,Nonstructural protein 1,7.12 µM (active)
same,EC50,Streptococcus,> 150 µM (not active)
same,EC50,Streptokinase A,> 150 µM (not active)
same,IC50,cells,1.68 µM (active)
same,CC50,[4],> 20 µM (active)
same,AC50,[5],7.58 µM (active)
same,CC50,[6],11.3 µM (active)
Cc1cccc(S(=O)(=O)N(C)C[C@H]2OCc3cnnn3CCCC(=O)N([C@H](C)CO)C[C@@H]2C)c1,AC50,[7],23.9 µM (active)
CCN1CCN(Cc2nc3ccc([N+](=O)[O-])cc3c(=O)n2-c2ccccc2)CC1,IC50,[8],0.27 µM (active)
same,IC50,[9],0.32 µM (active)
same,IC50,[10],0.01 µM (active)
Cc1ccccc1N1CCN(c2nc3ccccc3n2CC2CC2)CC1,IC50,Vasopressin V1b receptor,15.5 µM (inactive)
same,IC50,[11],7.54 µM (active)
same,IC50,[12],19.4 µM (inactive)
same,IC50,Vasopressin V2 receptor,19.4 µM (inactive)
c1ccc(Cn2cc(CSc3nnc(C4CCCC4)o3)nn2)cc1,IC90,[13],4 µM (active)
same,AC50,[14],> 52 µM (inactive)
same,IC90,[15],250 µM (active)
same,IC90,[16],4 µM (active)
COc1cccc(/C=N/NC(=S)Nc2cccc(C(=O)O)c2)c1O,IC50,Nonstructural protein 1,4.94 µM (active)
same,IC50,[17],> 109 µM (not active)
same,IC50,Bcl-2-like protein 1,> 109 µM (not active)
C/C=C/c1ccc([C@@H]2[C@@H]3CN(Cc4cccc(F)c4)C[C@H]2N3)cc1,AC50,[18],4.24 µM (active)
same,AC50,[19],9.58 µM (active)
O=C(Nc1ccccc1F)N1CCCCN2[C@H](C1)[C@@H](c1ccc(/C=C/c3ccccc3)cc1)[C@@H]2CO,AC50,[20],7.14 µM (active)
COc1ccc2c3c([nH]c2c1)[C@H](CO)N(C(C)=O)CC31CCN(C(=O)Nc2ccc(F)cc2)CC1,AC50,[21],0.834 µM (active)
COc1ccc(S(=O)(=O)N(C)C[C@@H]2OCc3ccccc3-c3c(n(C)c4ccccc34)C(=O)N([C@H](C)CO)C[C@@H]2C)cc1,AC50,[22],6.36 µM (active)
CCCN1CCCC[C@H]1C(=O)Nc1c(C)cccc1C [ROPIVACAINE HYDROCHLORIDE],AC50,HeLa,> 52 µM (inactive)
same,IC50,[23],> 33.3 µM (inactive)
